According to patent US9956144B2, “Process for particle processing of active pharmaceutical ingredients” (HOVIONE INTER LIMITED, priority 2010, dated 2018):

What was measured:
Type in all cases: physicochemical
[1] = XRPD of the isolated product (polymorphic form after HPC and spray drying); conditions: after HPC followed by spray drying
[2] = Particle size distribution of the powder produced by high pressure cavitation (HPC) and spray drying; conditions: dry powder after HPC followed by spray drying
Description: The suspension may be passed through a high pressure cavitation apparatus several times until the desired particle size and size distribution is achieved. […] The recirculation may, for example, be performed from 2-30 times (or cycles) depending upon the API. Preferred cycle ranges include from 5 to 25 and 15 to 25. […] As will be clear to those in the art, span is defined by the ratio ((Dv90−Dv10)/Dv50), with Dv being the diameter value at which a defined percentage of the particles (eg 10%, 50% or 90% in the equation) have a diameter equal to or less than the Dv value.

[3] = Amorphous content determined by dynamic vapour sorption (DVS); conditions: after HPC followed by spray drying
[4] = Detection of the anhydrous form by near infrared spectroscopy; conditions: after HPC followed by spray drying
[5] = TGA of the isolated product; conditions: after HPC followed by spray drying

Compound	XRPD of the product isolated (polymorphic form retained) [1]	Dv10 [2] [μm]	Dv50 [2] [μm]	Dv90 [2] [μm]	span ((Dv90−Dv10)/Dv50) [2]	amorphous content [3]	anhydrous form [4]	TGA value [5] [%]
C[C@@H]1C[C@H]2[C@@H]3C[C@H](F)C4=CC(=O)C=C[C@]4(C)[C@@]3(F)[C@@H](O)C[C@]2(C)[C@@]1(OC(=O)c1ccco1)C(=O)SCF [Fluticasone furoate]	substantially the same as the starting material	0.89	1.95	3.78	1.5	–	–	–
CCC(=O)O[C@]1(C(=O)SCF)[C@H](C)C[C@H]2[C@@H]3C[C@H](F)C4=CC(=O)C=C[C@]4(C)[C@@]3(F)[C@@H](O)C[C@@]21C [Fluticasone propionate]	substantially the same as the starting material	1.20	2.45	4.68	1.4	–	–	–
C[C@@H]1C[C@H]2[C@@H]3CCC4=CC(=O)C=C[C@]4(C)[C@@]3(Cl)[C@@H](O)C[C@]2(C)[C@@]1(OC(=O)c1ccco1)C(=O)CCl [Mometasone furoate monohydrate]	substantially the same as claimed in U.S. Pat. No. 6,180,781B1	1.91	3.97	7.47	1.4	below 1.1%	not detected	3.0
OCc1cc(C(O)CNCCCCCCOCCCCc2ccccc2)ccc1O (stereo not drawn) [Salmeterol xinafoate]	substantially the same as the starting material	0.33	1.37	3.09	2.0	–	–	–
C[N+]1(C)[C@@H]2C[C@@H](OC(=O)C(O)(c3cccs3)c3cccs3)C[C@H]1[C@@H]1O[C@@H]12 [Tiotropium bromide]	–	0.74	2.90	5.58	1.7	–	–	–
